Reference: patent US11702418B2, “SOS1 inhibitors” (priority 2019, dated 2023)
Read-outs that look alike come from different tables or passages of the source.

How the values were obtained:
[1] = target: recombinant human SOS1 polypeptide (amino acids 560-1049) (Homo sapiens (Human), UniProt Q07889); experiment: biochemical; format: binding
pERK in MKN1 cells = experiment: cells; format: cell-based; conditions: Homo sapiens, MKN-1, pERK inhibition, In-Cell Western, MKN1 or H358 cells (Table 24 does not say which), 0.5-1 hour incubation
Protocol: The cells were incubated for approximately 0.5-1 hour with the compounds solubilized in DMSO at 37° C. Cells were immediately fixed by adding 50 μL of 4% formaldehyde to all wells in a fume hood and the plates were incubated for 20 minutes at room temperature. The formaldehyde was discarded from the plates and 150 μL of ice-cold methanol was added to permeabilize the cells for 10 minutes at −20° C. The methanol was discarded from each of the plates and any liquid remaining in the plate by tapping the plate against paper towels. […] The plates were incubated overnight at 4° C. on a shaker.
On Assay day 2, the primary antibody solution was removed. […] The secondary antibody solution as removed and each plate was washed with PBST 3× times. Any liquid remaining was discarded and the plate was imaged using the Licor Odyssey machine according to the manufacturer's instruction, using a set focus length at 3 mm and both 800 nm and 700 nm filters. The GAPDH normalized scan values for each well were divided by the average of vehicle wells to get the % of pERK inhibition. The IC50 values were then calculated with the Graph pad Prism software.

[2] = HTRF displacement, Cy5 labelled tracer, Morrison equation for competitive binding, read-out: Ki, Inhibition of Labeled Tracer Binding to SOS1

Sequence of recombinant human SOS1 polypeptide (amino acids 560-1049) (Q07889 560-1049): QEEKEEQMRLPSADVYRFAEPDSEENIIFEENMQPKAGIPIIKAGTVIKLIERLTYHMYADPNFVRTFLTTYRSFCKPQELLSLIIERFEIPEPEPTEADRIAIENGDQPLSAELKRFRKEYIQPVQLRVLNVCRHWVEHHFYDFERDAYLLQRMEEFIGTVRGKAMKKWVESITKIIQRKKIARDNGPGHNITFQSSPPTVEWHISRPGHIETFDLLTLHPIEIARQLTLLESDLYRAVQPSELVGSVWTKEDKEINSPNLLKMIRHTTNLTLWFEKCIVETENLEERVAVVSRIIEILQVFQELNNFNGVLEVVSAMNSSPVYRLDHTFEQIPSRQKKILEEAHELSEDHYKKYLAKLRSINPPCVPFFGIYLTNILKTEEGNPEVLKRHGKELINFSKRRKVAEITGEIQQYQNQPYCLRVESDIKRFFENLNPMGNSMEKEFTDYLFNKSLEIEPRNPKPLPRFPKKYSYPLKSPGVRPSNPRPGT

Structure (SMILES)	Ki [1, 2] [µM]	IC50 (pERK in MKN1 cells; read-out: IC50) [µM]	Ki ([1]; read-out: Ki, Inhibition of Labeled Tracer Binding to SOS1) [µM]	IC50 (pERK in MKN1 cells) [µM]	Ki [1] [µM]
Cc1nnc(N[C@H](C)c2cccc(F)c2Cl)c2cc(N3CC(C)(N(C)C)C3)ncc12 [Example 12-85]	0.0276	0.602			
Cc1nnc(N[C@H](C)c2cccc(C(F)F)c2F)c2cc(N3CC(C)(O)C3)ncc12 [Example 12-101]	0.00145	0.022			
Cc1c(C#N)cc(F)cc1[C@@H](C)Nc1nnc(C)c2cnc(N3CCN4CCOC[C@@H]4C3)cc12 [Example 12-103]	0.0109	0.107			
Cc1c(C#N)cc(F)cc1[C@@H](C)Nc1nnc(C)c2cnc(N3CCC(C)(N(C)C)CC3)cc12 [Example 12-104]	0.0061	0.092			
Cc1c(C#N)cc(F)cc1[C@@H](C)Nc1nnc(C)c2cnc(N3C[C@H]4C[C@@H]3CO4)cc12 [Example 12-105]	0.0109	0.097			
Cc1c(C#N)cc(F)cc1[C@@H](C)Nc1nnc(C)c2cnc(N3CC4CC(C3)O4)cc12 [Example 12-106]	0.0111	0.114			
Cc1nnc(N[C@H](C)c2cccc(C(F)F)c2F)c2cc(N3CC(C)(N(C)C)C3)ncc12 [Example 12-115]	0.00166	0.019			
Cc1cc(F)ccc1[C@@H](C)Nc1nnc(C)c2cnc(N3CC(C)(N(C)C)C3)cc12 [Example 12-124]	0.0645	0.856			
Cc1cccc([C@@H](C)Nc2nnc(C)c3cnc(N4CCN5CCOC[C@@H]5C4)cc23)c1F [Example 12-131]	0.0036	0.028			
Cc1cccc([C@@H](C)Nc2nnc(C)c3cnc(N4CC(C)(O)C4)cc23)c1F [Example 12-132]	0.011	0.076			
Cc1cccc([C@@H](C)Nc2nnc(C)c3cnc(N4CC(C)(N(C)C)C4)cc23)c1F [Example 12-133]	0.0115	0.097			
Cc1c([C@@H](C)Nc2nnc(C)c3ccc(O[C@H]4CCOC4)cc23)cccc1C(F)(F)F [Example 13-1, 4-methyl-N—((R)-1-(2-methyl-3-(trifluoromethyl)phenyl)ethyl)-7-(((S)-tetrahydrofuran-3-yl)oxy)phthalazin-1-amine]	0.00277	0.149			
Cc1c([C@@H](C)Nc2nnc(C)c3ccc(OC4COC4)cc23)cccc1C(F)(F)F [Example 13-2, (R)-4-methyl-N-(1-(2-methyl-3-(trifluoromethyl)phenyl)ethyl)-7-(oxetan-3-yloxy)phthalazin-1-amine]	0.191	2.07			
Cc1c(C#N)cccc1[C@@H](C)Nc1nnc(C)c2ccc(O[C@H]3CCOC3)cc12 [Example 13-3]	0.0122	0.195			
Cc1c([C@@H](C)Nc2nnc(CN(C)C)c3ccc(N4CCOCC4)cc23)cccc1C(F)(F)F [Example 14-1, (R)-4-((dimethylamino)methyl)-N-(1-(2-methyl-3-(trifluoromethyl)phenyl)ethyl)-7-morpholinophthalazin-1-amine]			0.00897	0.068	
Cc1c(C#N)cccc1[C@@H](C)Nc1nnc(CN(C)C)c2cnc(N3C[C@H]4C[C@@H]3CO4)cc12 [Example 14-4, 3-((R)-1-((7-((1R,4R)-2-oxa-5-azabicyclo[2.2.1]heptan-5-yl)-4-((dimethylamino)methyl)pyrido[3,4-d]pyridazin-1-yl)amino)ethyl)-2-methylbenzonitrile]	0.00855	0.089			
CNCc1nnc(N[C@H](C)c2cccc(C(F)(F)F)c2C)c2cc(N3C[C@H]4C[C@@H]3CO4)ncc12 [Example 14-5, 7-((1R,4R)-2-oxa-5-azabicyclo[2.2.1]heptan-5-yl)-N-((R)-1-(2-methyl-3-(trifluoromethyl)phenyl)ethyl)-4-((methylamino)methyl)pyrido[3,4-d]pyridazin-1-amine]	0.00254	0.07			

Structure (SMILES)	Ki [1, 2] [µM]	IC50 (pERK in MKN1 cells; read-out: IC50) [µM]	Ki ([1]; read-out: Ki, Inhibition of Labeled Tracer Binding to SOS1) [µM]	IC50 (pERK in MKN1 cells) [µM]	Ki [1] [µM]
Cc1c([C@@H](C)Nc2nnc(CN(C)C)c3cnc(N4C[C@H]5C[C@@H]4CO5)cc23)cccc1C(F)(F)F [Example 14-6, 7-((1R,4R)-2-oxa-5-azabicyclo[2.2.1]heptan-5-yl)-4-((dimethylamino)methyl)-N-((R)-1-(2-methyl-3-(trifluoromethyl)phenyl)ethyl)pyrido[3,4-d]pyridazin-1-amine]	0.00256	0.142			
Cc1nnc(N[C@H](C)c2cc(N)cc(C(F)(F)F)c2)c2cc(O[C@H]3CCOC3)ccc12 [Example 15-1, N—((R)-1-(3-amino-5-(trifluoromethyl)phenyl)ethyl)-4-methyl-7-(((S)-tetrahydrofuran-3-yl)oxy)phthalazin-1-amine]	0.00337	0.028			
Cc1c([C@@H](C)Nc2nnc(C)c3ccc(N4CCOCC4)cc23)cc(N)cc1C(F)(F)F [Example 15-2, (R)—N-(1-(5-amino-2-methyl-3-(trifluoromethyl)phenyl)ethyl)-4-methyl-7-morpholinophthalazin-1-amine]				0.008	0.00042
Cc1c([C@@H](C)Nc2nnc(C)c3ccc(O[C@H]4CCOC4)cc23)cc(N)cc1C(F)(F)F [Example 15-3, N-((R)-1-(5-amino-2-methyl-3-(trifluoromethyl)phenyl)ethyl)-4-methyl-7-(((S)-tetrahydrofuran-3-yl)oxy)phthalazin-1-amine]	0.00094	0.034			
Cc1nnc(N[C@H](C)c2cc(N)cc(C(F)(F)F)n2)c2cc(N3CCOCC3)ccc12 [Example 16-1, (R)—N-(1-(4-amino-6-(trifluoromethyl)pyridin-2-yl)ethyl)-4-methyl-7-morpholinophthalazin-1-amine]				0.245	0.0144
Cc1nnc(N[C@H](C)c2cc(N)cc(C(F)(F)F)n2)c2cc(N3CC4CC(C3)O4)ccc12 [Example 16-4, N-((R)-1-(4-amino-6-(trifluoromethyl)pyridin-2-yl)ethyl)-7-(6-oxa-3-azabicyclo[3.1.1]heptan-3-yl)-4-methylphthalazin-1-amine]	0.0104	0.371			
Cc1nnc(N[C@H](C)c2cc(N)cc(C(F)(F)F)n2)c2cc(N3C[C@H]4CC[C@@H]3CN4C)ccc12 [Example 16-5, N-((R)-1-(4-amino-6-(trifluoromethyl)pyridin-2-yl)ethyl)-4-methyl-7-((1R, 4R)-5-methyl-2,5-diazabicyclo[2.2.2]octan-2-yl)phthalazin-1-amine]	0.0055	0.071			
Cc1nnc(N[C@H](C)c2cc(N)cc(C(F)(F)F)n2)c2cc(N3C[C@H]4CC[C@@H]3CN4C)ncc12 [Example 16-6, N-((R)-1-(4-amino-6-(trifluoromethyl)pyridin-2-yl)ethyl)-4-methyl-7-((1R, 4R)-5-methyl-2,5-diazabicyclo[2.2.2]octan-2-yl)pyrido[3,4-d]pyridazin-1-amine]	0.0065	0.239			
Cc1nnc(N[C@H](C)c2cc(N)cc(C(F)(F)F)n2)c2cc(N3CC4(CCN(C)C4=O)C3)ncc12 [Example 16-7, (R)-2-(1-((1-(4-amino-6-(trifluoromethyl)pyridin-2-yl)ethyl)amino)-4-methylpyrido[3,4-d]pyridazin-7-yl)-6-methyl-2,6-diazaspiro[3.4]octan-5-one]	0.0788	2.9			
Cc1nnc(N[C@H](C)c2cc(N)cc(C(F)(F)F)n2)c2cc(N3C[C@H]4C[C@@H]3CO4)ccc12 [Example 16-8, N-((R)-1-(4-amino-6-(trifluoromethyl)pyridin-2-yl)ethyl)-7-((1R, 4R)-2-oxa-5-azabicyclo[2.2.1]heptan-5-yl)-4-methylphthalazin-1-amine]	0.0212	0.093			
Cc1nnc(N[C@H](C)c2cc(N)cc(C(F)(F)F)n2)c2cc(N3CC(C)(N(C)C)C3)ccc12 [Example 16-9, (R)-N-(1-(4-amino-6-(trifluoromethyl)pyridin-2-yl)ethyl)-7-(3-(dimethylamino)-3-methylazetidin-1-yl)-4-methylphthalazin-1-amine]	0.0356	0.643			
Cc1nnc(N[C@H](C)c2cc(N)cc(C(F)(F)F)n2)c2cc(N3CC(C)(O)C3)ccc12 [Example 16-10, (R)-1-(4-((1-(4-amino-6-(trifluoromethyl)pyridin-2-yl)ethyl)amino)-1-methylphthalazin-6-yl)-3-methylazetidin-3-ol]	0.081	0.919			
Cc1nnc(N[C@H](C)c2cc(N)cc(C(F)(F)F)n2)c2cc(N3CC4CC(C3)O4)ncc12 [Example 16-13, N-((R)-1-(4-amino-6-(trifluoromethyl)pyridin-2-yl)ethyl)-7-(6-oxa-3-azabicyclo[3.1.1]heptan-3-yl)-4-methylpyrido[3,4-d]pyridazin-1-amine]	0.0258	> 10			
Cc1nnc(N[C@H](C)c2cc(N)c(F)c(C(F)(F)F)c2)c2cc(N3C[C@H]4C[C@@H]3CO4)ccc12 [Example 16-14, N-((R)-1-(3-amino-4-fluoro-5-(trifluoromethyl)phenyl)ethyl)-7-((1R,4R)-2-oxa-5-azabicyclo[2.2.1]heptan-5-yl)-4-methylphthalazin-1-amine]	0.00171	0.037			
COc1c(C#N)cccc1[C@@H](C)Nc1nnc(C)c2cnc(N3CCOCC3)cc12 [Example 17-1, (R)-2-methoxy-3-(1-((4-methyl-7-morpholinopyrido[3,4-d]pyridazin-1-yl)amino)ethyl)benzonitrile]				0.03	0.00433
COc1c(C#N)cccc1[C@@H](C)Nc1nnc(C)c2cnc(N3CC(C)(O)C3)cc12 [Example 17-3, (R)-3-(1-((7-(3-hydroxy-3-methylazetidin-1-yl)-4-methylpyrido[3,4-d]pyridazin-1-yl)amino)ethyl)-2-methoxybenzonitrile]	0.0128	0.188			
COc1c(C#N)cccc1[C@@H](C)Nc1nnc(C)c2ccc(N3CC(C)(O)C3)cc12 [Example 17-4, (R)-3-(1-((7-(3-hydroxy-3-methlazetidin-1-yl)-4-methylpyridazin-1-yl)amino)ethyl)-2-methoxybenzonitrile]	0.0144	0.116			
